Data from patent US20030108526A1, “Microorganisms for use in the measurement of environmental factors” (priority 2001, published 2003).

Experiments:
ZmHK1 = assay: Cytokinin sensor function and sensitivity of ZmHK1 in E. coli KMI001 (colony color on LAGX agar); format: cell-based, maize
Text: The protein coding region of pZmHK1 was amplified by PCR and ligated to the BamHI/BSalI site of pIN-IIIΔEH plasmid. Primer sequences used in the PCR amplification are as described below.
Plasmid pIN-IIIΔEH has a promoter that constitutively directs weak expression of a foreign gene in E. coli. The resultant plasmid was designated pIN-III-ZmHK.
The constructed plasmid was transformed into E. coli KMI001 [ΔrcsC, cps::lacZ]. This E. coli strain is a strain in which cps gene involved in polysaccharide synthesis and a binary regulatory factor consisting of rcsC-rcsB (an expression regulatory system for cps) are partially modified. Specifically, sensor histidine kinase gene rcsC is deleted, and β-galactosidase (a marker gene) is inserted downstream of the promoter of cps gene. The resultant transformant was cultured in 2 ml of LAG liquid medium (1% Bacto tryptone, 0.5% Bacto yeast extract, 1% NaCl, 40 mM glucose, 50 mM phosphate buffer, pH 7.0) overnight at 25° C. The resultant culture broth was centrifuged and the supernatant was discarded. The E. coli cell pellet was washed twice in sterilized water and suspended in 2 ml (final volume) of sterilized water. This suspension was spotted at two points each on LAGX agar medium (1% Bacto tryptone, 0.5% Bacto yeast extract, 1% NaCl, 40 mM glucose, 50 mM phosphate buffer, pH 7.0, 80 μg/ml X-gal, 1.5% agarose) containing 1 μM trans-zeatin (t-zeatin) and on LAGX agar medium not containing t-zeatin, and cultured overnight (12 hr) at 25° C. The next day, the color of each colony was observed.
E. coli suspension was prepared in the same manner as in Example 4. Subsequently, the suspension was spotted on LAGX agar medium containing t-zeatin at varied concentrations from 0 nM to 1000 nM, and cultured overnight (12 hr) at 25° C. The next day, the color of each colony was observed.

AHK4 = AHK4 (Arabidopsis thaliana, UniProt Q9C5U0); settings: experimental conditions of Example 4; Plant Cell Physiol 2001, 42: 107-113; cited from earlier work
Sequence of AHK4 (Q9C5U0 whole entry): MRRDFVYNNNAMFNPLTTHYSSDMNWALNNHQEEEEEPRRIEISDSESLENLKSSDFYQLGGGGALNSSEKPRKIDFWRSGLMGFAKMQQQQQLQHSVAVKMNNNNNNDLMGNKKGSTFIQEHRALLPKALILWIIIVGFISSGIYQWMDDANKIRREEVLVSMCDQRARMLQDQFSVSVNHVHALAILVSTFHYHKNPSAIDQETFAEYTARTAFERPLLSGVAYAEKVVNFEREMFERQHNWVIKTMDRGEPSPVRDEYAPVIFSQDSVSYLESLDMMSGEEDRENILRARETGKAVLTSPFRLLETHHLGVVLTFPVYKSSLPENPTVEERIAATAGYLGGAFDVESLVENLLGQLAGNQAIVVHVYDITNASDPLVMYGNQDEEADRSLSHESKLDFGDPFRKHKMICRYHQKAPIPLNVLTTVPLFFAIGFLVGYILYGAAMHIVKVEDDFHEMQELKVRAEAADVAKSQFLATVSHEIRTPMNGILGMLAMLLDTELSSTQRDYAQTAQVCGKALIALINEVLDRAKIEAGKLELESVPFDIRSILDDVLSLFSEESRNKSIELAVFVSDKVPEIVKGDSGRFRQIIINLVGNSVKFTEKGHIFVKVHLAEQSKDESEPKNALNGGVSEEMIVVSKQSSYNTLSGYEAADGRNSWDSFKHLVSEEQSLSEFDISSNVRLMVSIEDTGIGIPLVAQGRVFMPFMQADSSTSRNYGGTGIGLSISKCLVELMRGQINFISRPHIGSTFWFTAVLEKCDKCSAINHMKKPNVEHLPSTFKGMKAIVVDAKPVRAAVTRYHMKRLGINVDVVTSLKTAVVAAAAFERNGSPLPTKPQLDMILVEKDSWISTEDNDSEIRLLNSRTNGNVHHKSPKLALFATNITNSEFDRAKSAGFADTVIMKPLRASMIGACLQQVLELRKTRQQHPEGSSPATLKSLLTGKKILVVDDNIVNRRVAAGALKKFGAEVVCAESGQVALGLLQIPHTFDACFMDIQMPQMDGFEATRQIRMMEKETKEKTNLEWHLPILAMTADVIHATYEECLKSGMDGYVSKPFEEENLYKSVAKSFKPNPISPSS

[1] = system: cps::lacZ (β-galactosidase) expression in E. coli KMI001; assay: Examination of biosensor function: IPTG-induced sensor E. coli or its supernatant with receptor-transferred marker E. coli; format: cell-based, Escherichia coli; settings: 1 mM IPTG, Examples 6 and 7
Text: (§1) The next day, the color of each colony was observed.
as §1

Molecule: C/C(=C\CNc1ncnc2nc[nH]c12)CO [t-zeatin, trans-zeatin]
- β-galactosidase expression of ZmHK1-transferred E. coli in response to the cytokinin in the medium (ZmHK1; 1 μM t-zeatin in LAGX agar, 12 hr, 25° C.): expressed β-galactosidase
- t-zeatin concentration to which ZmHK1-transferred E. coli responds (ZmHK1; LAGX agar with 0 nM to 1000 nM t-zeatin, 12 hr, 25° C.): ≤ 10 µM
- lowest t-zeatin concentration to which AHK4-transferred E. coli is able to respond (AHK4): approx. 50 nM

Molecule: AHK4: Arabidopsis thaliana cytokinin receptor (sensor protein)
- Biosensor response (blue colony color) of receptor-transferred transformant to IPTG [1]: did not present a blue color

B1: ZmHK1: maize cytokinin receptor, 974 amino acids, SEQ ID NO: 2 (protein)
chain: MGGKYRAARTKRWWRGLAAAGWVLTAVVCSAVMHWTLRRDSMDRAEERLVSMCEERARMLQEQFGVTVNHVHAIAILISTFNFEKSPPAIDQDTFAKYTARTSFERPLLNGVAFAQRVFHHEREMFESQQGWVMNTMQREPAPPQVEYAPVIFSQDTVSYLARIDMMSGEEDRENIFRARTTGKAVLTNPFRLLGSNHLGVVLTFAVYRPDLPADASVEQRVEATIGYLGGAFDVESLVENLLSKLAGNQDIVVNVYDVTNASDAMVLYGPSSLDEQVPFLHVSMLDFGDPFRKHEMRCRYRQKLPMPWSAITNPLGTFVIWMLLGYSIAAAYSRYDKVTEDCRKMEELKTQAEAADVAKSQFLATASHEIRTPMNGVLGMLDMLLGTDLTMTQKDYAQTAQMCGRALITLINDVLDRAKIEAGKLELEAVPFDLRSLMDDVVSLFSSKSREKCIELAVFVCDNVPKVVIGDPWRFRQILTNLVGNAVKFTERGHVFVRVCLAENSNMEANQVLHGAMNGKGGRVESTANGAFNTLSGFEAADRRNSWQYFKLLLSDKESLLDDLESENSNQSDSDRVTLAISIEDTGVGIPLQAQDRVFTPFMQADSSTSRNYGGTGIGLSISKCLAELMGGQISFTSHPSVGSTFTFSATLKHSHKDISGDSSRSLTEALPTAFKGMKAILVDGRPVRSAVTRYHLKRLGILLQVVNNMNAVVKAFPGQNGAAGSREKASILFIESDFWRPETDVQLLNHLREQKNGQLSDGHKVVLLVTSEADKDKYGSIFDIVMCKPIRASTIASSIQQLLKVEIAERKDNQNRPSFLRSLLVGKNILVVDDNKVNLRVAAAALKKYGANVSCVESGKDAISLLQPPHRFDACFMDVQMPEMDGFEATGQIRQMELKANEERKNKLASIEGSTTAEYHLPVLAMTADVIQATYEECIKSGMDGYVSKPFDEEQLYQAVSRLVVGTTDSAV
modifications: Zea mays
- ability to perceive cytokinins compared to that of AHK4 (ZmHK1): approximately 10 fold
- color development of transferred E. coli spot compared with AHK4-transferred E. coli spots (ZmHK1; FIG. 1, 1 μM t-zeatin): more intensive color development
- Biosensor response (blue colony color) of receptor-transferred transformant to IPTG [1]: discriminated the presence or absence of a specific substance
